Measurements reported in PMC12973313 (Chemical Science, 2026).
Where two headings read alike, the source gives them in different places.

Experiments:
[1] = set-up: method as in PMID 29633393; settings: DMSO-d6 1% DCM, 112 mM, 298 K; proportion NMR silent; cited from earlier work
[2] = Metabolic stability in liver microsomes; type: in vitro ADME, human
Method: Following this, the metabolic stability of 9 was determined against mouse, rat, and human liver microsomes. […] Within this assay the stability of the intact parent compound is monitored with respect to time, during incubation at 37 °C in the presence and absence of the co-factor NADPH – required for cytochrome p450 activity.
Metabolic Stability in Rat, Mouse and Human Liver Microsomes:
The metabolic stability of compounds at a concentration of 1 µM, in rat, mouse and human liver microsomes (BD Gentest, Franklin Lakes NJ) was measured following incubation with hepatic microsomes (0.5 mg of protein / mL) in the presence and absence of cofactor (NADPH) at 37 °C. Aliquots of each incubation were removed at 0.5, 5, 15, 30 and 60 minutes. […]
Samples were analysed using a Shimadzu Shimadzu Nexera LC Binary Gradient LC-30AD (Shimadzu Inc, Kyoto), coupled to a Sciex 5500 mass spectrometer (AB Inc., Illinois) for rat and mouse microsomes and a Sciex 6500+ for human microsomes. […]
The bi-directional permeability in Caco-2 cell lines was determined by seeding cells onto an HTS Transwell plate. […] To assess monolayer integrity the transepithelial electrical resistance (TEER) across the monolayer was measured using Millicell Epithelial volt-ohm meter prior to assay and Lucifer yellow (LY) fluorescence measurement post-assay. […]

[3] = Bi-directional permeability in Caco-2 cell line; type: in vitro ADME; settings: human; for recovery at 2 h, 5 µM: Caco-2, pH 7.4, after 2 hours
From the text: (§1) Next, to gauge the suitability of SSAs for oral dosing, 9 was subjected to a Caco-2 permeability assay which is used to both predict human intestinal permeability and investigate drug efflux, predicting in vivo compound absorption. This assay allows assessment of a compound's ability to undergo transport from the apical to the basolateral (A–B) compartments of the cell monolayer and vice versa (B–A). […] This is likely to result in poor absorption when dosed orally and therefore further development would be necessary for these agents to become suitable for oral administration. […]
(§2) The ionspray voltage was 5500V.
(§3) Bi-directional Permeability in Caco-2 Cell Line:
(§4) The bi-directional permeability in Caco-2 cell lines was determined by seeding cells onto an HTS Transwell plate. Cells were cultivated for 14-18 days in a cell culture incubator at 37°C, 5% CO2, 95% relative humidity. Cell culture medium was replaced every other day. To assess monolayer integrity the transepithelial electrical resistance (TEER) across the monolayer was measured using Millicell Epithelial volt-ohm meter prior to assay and Lucifer yellow (LY) fluorescence measurement post-assay.
(§5) Test compound was prepared in DMSO and diluted in Hank’s Balanced Saline Solution (HBSS, pH 7.4) to a final concentration of 5 µM. Compound was added to the donor compartment of the transwell plate for both apical to basolateral (A>B) and basolateral to apical (B>A) measurements, with blank HBSS being added to the receiver compartment. The transwell plate was then incubated at 37°C, 5% CO2 for 2 hours.
(§6) Samples were taken at T=0 and T=2 hours determine the concentration of initial donor sample, and the concentration of receiver and donor wells post-incubation, respectively.
(§7) The samples were quenched with solvent containing internal standard (IS). The supernatant was mixed with an appropriate volume of ultra-pure water before LC-MS/MS analysis.
(§8) Samples were analysed using a Shimadzu Nexera LC Binary Gradient LC-30AD (Shimadzu Inc, Kyoto), coupled to a Sciex 6500+ (AB Inc., Illinois). Separation of compounds was achieved using a HALO 90Å biphenyl (2.7µm,2.1x50mm) (Advanced Materials Technology, Wilmington) column at a temperature of 40°C. A binary mobile phase gradient at a flow rate of 0.7 mL/min was used. Initial LC conditions comprised of 95% solvent A (0.1% formic acid in water) and 5% solvent B (0.1% formic acid in acetonitrile). This was ramped to 95% solvent B at 0.7 minutes, held for 0.5 minutes and then immediately returned to initial conditions. Sample analysis was by electrospray ionisation combined with multiple reaction monitoring in positive ion mode. The ion spray voltage was 5500V.
(§9) In vitro Absorption, Distribution and Metabolism results
(§10) Table S1 – Result from solubility assays performed in PBS pH 7.4 for SSA 9.
(§11) Table S2 – Summary of results from Caco-2 permeability assays for SSA 9. Papp is given as […]
(§12) cm/s. A = apical; B = basolateral. Recovery = % SSA recovered from the assay after 2 hours.
(§13) ID Papp (A-B) % Recovery Papp (B-A) % Recovery Efflux Ratio
(§14) Table S3 – Summary of results from human plasma protein binding assays for SSA 9. % Bound = % of SSA bound to the plasma proteins after 6 hours incubation at 37 °C. Low % […]
(§15) = > 99 %. % Recovery = % SSA recovered from the assay after 6 hours.
(§16) ID % Bound % Recovery % Stability
(§17) Table S4 – Summary of results from mouse, rat and human microsomal stability assays for SSA 9. The in vitro half-life (t1/2) and microsomal intrinsic clearance (CLint) were calculated from the elimination rate (k, the slope of the natural log of concentration verses time curve), assuming first order kinetics, using the formulae t1/2 = 0.693/-k and CLint = 0.693/t1/2 […]. This compound would be classed as a low clearance compound in all three species. […]

Caco-2 cell monolayer = experiment: Bi-directional permeability in Caco-2 cell line; type: in vitro ADME
From the text: as §1, §2, §3, §4, §5, §6, §7, §8, §9, §10, §11, §12, §13, §14, §15, §16, §17

Row | Structure (SMILES) | Q NMR (%) SSA anion [1] | Q NMR (%) SSA cation [1] | microsomal CLint at 1 µM ([2]; human microsomes) | half-life at 1 µM ([2]; human, 1 µM, 0.5 mg protein/mL, read-out: In vitro t1/2) | Papp B→A at 2 h, 5 µM ([3]; Caco-2, pH 7.4, 5 µM, 2 hours, basolateral to apical) | efflux ratio at 2 h, 5 µM ([3]; Caco-2, pH 7.4, Caco-2) | recovery at 2 h, 5 µM ([3]; read-out: Recovery (%) AP-BL) | recovery at 2 h, 5 µM ([3]; read-out: Recovery (%) BL-AP) | Papp A→B at 2 h, 5 µM ([3]; Caco-2, pH 7.4, 5 µM, 2 hours, apical to basolateral) | Papp (B-A) (Caco-2 cell monolayer; 5 µM, 2 hours, basolateral to apical) | Efflux Ratio (Caco-2 cell monolayer; Caco-2) | Recovery (%) AP-BL (Caco-2 cell monolayer; after 2 hours) | Recovery (%) BL-AP (Caco-2 cell monolayer; after 2 hours)
1 | O=C(O)CNC(=O)Nc1ccc(C(F)(F)F)cc1 [SSA 1] | 0 (ref. [30]) % | 0 (ref. [30]) % |  |  |  |  |  |  |  |  |  |  | 
2 | O=C(Nc1ccc(C(F)(F)F)cc1)N[C@H](Cc1ccccc1)C(=O)O [SSA 9] |  |  | < 7.5 µL/min/mg | > 185 min | 16.8 ×10⁻⁶ cm/s | 96.9 | 111% | 97.7% | 0.17 ×10⁻⁶ cm/s | 16.76 10-6 cm/s | 96.91 | 110.78% | 97.74%
